{
  "source": "patent US12479847B2",
  "about": "(DANA-FARBER CANCER INSTITUTE, INC., priority 2019, dated 2025)",
  "assay_in_all_cases": "KINOMEscan (ScanMAX) kinase profiling",
  "format_in_all_cases": "binding",
  "key": {"panel of 468 kinases [1]": {"molecular_target": "T1, panel of 468 kinases (Homo sapiens, UniProt P07948)", "T1 construct": "purchased KINOMEscan (ScanMAX) service", "T1 sequence (P07948 whole entry)": "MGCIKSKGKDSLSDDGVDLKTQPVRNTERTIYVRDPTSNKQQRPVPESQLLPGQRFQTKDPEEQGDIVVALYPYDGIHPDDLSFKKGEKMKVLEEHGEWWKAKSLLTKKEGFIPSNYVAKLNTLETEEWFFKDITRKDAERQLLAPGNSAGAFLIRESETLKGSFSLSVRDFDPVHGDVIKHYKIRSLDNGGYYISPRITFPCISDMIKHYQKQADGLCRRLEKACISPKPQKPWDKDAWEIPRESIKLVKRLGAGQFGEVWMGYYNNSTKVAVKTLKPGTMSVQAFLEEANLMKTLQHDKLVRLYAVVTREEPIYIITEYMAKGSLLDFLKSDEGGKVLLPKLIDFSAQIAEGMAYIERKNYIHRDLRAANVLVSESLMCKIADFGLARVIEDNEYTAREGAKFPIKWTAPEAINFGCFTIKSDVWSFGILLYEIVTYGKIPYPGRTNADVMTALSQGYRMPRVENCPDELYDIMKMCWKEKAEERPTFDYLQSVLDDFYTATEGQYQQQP", "conditions": "LYN; 1 μM; read-out: % control"}, "panel of 468 kinases [2]": {"molecular_target": "T2, panel of 468 kinases (Homo sapiens, UniProt P37023)", "T2 construct": "purchased KINOMEscan (ScanMAX) service", "T2 sequence (P37023 22-503)": "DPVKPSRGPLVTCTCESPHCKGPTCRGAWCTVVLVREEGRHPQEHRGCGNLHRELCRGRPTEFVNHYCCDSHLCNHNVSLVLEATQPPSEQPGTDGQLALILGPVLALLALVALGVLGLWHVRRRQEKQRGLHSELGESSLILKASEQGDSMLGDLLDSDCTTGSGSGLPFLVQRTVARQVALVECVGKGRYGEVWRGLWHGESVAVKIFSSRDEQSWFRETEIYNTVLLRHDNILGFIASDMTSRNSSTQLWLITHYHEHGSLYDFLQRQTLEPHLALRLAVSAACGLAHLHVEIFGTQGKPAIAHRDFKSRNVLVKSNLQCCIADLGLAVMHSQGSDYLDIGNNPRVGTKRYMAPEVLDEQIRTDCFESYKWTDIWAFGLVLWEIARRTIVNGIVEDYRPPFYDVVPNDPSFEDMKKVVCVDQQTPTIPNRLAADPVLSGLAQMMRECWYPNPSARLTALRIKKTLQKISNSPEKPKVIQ", "conditions": "ACVRL1; 1 μM; read-out: % control"}, "panel of 468 kinases [3]": {"molecular_target": "T3, panel of 468 kinases (Homo sapiens, UniProt Q9NRH2)", "T3 construct": "purchased KINOMEscan (ScanMAX) service", "T3 sequence (Q9NRH2 1-765)": "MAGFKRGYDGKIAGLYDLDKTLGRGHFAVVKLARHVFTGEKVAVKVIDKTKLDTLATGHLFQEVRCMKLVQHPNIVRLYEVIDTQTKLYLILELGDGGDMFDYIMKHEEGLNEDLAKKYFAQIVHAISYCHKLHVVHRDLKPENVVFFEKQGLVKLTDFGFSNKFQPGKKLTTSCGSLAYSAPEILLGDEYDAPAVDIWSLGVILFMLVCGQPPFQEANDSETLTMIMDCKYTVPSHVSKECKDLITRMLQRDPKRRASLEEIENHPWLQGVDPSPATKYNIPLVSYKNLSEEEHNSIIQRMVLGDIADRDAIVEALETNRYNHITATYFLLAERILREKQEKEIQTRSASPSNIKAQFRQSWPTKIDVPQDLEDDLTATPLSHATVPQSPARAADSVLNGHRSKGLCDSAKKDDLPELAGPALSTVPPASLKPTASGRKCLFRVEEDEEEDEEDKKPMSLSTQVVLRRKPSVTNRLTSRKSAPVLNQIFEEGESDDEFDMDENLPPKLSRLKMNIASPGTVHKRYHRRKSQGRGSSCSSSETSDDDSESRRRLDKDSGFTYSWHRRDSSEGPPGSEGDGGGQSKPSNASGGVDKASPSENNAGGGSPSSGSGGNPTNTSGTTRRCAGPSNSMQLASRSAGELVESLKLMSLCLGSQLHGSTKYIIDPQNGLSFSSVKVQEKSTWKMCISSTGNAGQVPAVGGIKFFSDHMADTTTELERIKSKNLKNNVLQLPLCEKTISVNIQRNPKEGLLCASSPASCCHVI", "conditions": "SNRK; 1 μM; read-out: % control"}, "panel of 468 kinases [4]": {"molecular_target": "T4, panel of 468 kinases (Homo sapiens, UniProt O94921)", "T4 construct": "purchased KINOMEscan (ScanMAX) service", "T4 sequence (O94921 whole entry)": "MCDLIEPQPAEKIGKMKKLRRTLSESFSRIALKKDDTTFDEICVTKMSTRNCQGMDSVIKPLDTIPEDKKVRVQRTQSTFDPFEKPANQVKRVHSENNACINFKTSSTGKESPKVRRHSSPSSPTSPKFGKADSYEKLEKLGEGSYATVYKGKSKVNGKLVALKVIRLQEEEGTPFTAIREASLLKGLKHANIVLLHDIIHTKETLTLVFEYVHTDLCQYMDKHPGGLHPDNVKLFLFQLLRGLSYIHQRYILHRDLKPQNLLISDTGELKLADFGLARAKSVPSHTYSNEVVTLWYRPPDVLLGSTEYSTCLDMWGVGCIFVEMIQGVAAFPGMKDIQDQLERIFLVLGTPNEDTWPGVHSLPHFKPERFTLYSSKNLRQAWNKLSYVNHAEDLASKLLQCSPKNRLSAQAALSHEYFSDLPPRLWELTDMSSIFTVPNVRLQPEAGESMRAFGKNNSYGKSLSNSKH", "conditions": "PFTK1; 1 μM; read-out: % control"}, "panel of 468 kinases [5]": {"molecular_target": "T5, panel of 468 kinases (Homo sapiens, UniProt P51451)", "T5 construct": "purchased KINOMEscan (ScanMAX) service", "T5 sequence (P51451 whole entry)": "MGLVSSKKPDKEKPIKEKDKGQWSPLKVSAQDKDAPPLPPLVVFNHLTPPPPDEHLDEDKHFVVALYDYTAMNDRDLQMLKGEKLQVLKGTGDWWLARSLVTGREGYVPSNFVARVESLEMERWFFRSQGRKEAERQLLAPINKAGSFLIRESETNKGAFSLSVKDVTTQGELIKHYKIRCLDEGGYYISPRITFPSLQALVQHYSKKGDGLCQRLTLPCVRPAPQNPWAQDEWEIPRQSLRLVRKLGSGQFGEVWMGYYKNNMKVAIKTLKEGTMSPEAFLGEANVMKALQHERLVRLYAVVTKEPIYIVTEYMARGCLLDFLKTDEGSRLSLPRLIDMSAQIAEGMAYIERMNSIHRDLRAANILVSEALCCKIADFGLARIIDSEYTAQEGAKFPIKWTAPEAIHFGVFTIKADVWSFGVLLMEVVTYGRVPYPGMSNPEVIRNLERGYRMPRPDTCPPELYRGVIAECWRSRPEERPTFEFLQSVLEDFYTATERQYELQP", "conditions": "BLK; 1 μM; read-out: % control"}, "panel of 468 kinases [6]": {"molecular_target": "T6, panel of 468 kinases (Homo sapiens, UniProt P21709)", "T6 construct": "purchased KINOMEscan (ScanMAX) service", "T6 sequence (P21709 26-976)": "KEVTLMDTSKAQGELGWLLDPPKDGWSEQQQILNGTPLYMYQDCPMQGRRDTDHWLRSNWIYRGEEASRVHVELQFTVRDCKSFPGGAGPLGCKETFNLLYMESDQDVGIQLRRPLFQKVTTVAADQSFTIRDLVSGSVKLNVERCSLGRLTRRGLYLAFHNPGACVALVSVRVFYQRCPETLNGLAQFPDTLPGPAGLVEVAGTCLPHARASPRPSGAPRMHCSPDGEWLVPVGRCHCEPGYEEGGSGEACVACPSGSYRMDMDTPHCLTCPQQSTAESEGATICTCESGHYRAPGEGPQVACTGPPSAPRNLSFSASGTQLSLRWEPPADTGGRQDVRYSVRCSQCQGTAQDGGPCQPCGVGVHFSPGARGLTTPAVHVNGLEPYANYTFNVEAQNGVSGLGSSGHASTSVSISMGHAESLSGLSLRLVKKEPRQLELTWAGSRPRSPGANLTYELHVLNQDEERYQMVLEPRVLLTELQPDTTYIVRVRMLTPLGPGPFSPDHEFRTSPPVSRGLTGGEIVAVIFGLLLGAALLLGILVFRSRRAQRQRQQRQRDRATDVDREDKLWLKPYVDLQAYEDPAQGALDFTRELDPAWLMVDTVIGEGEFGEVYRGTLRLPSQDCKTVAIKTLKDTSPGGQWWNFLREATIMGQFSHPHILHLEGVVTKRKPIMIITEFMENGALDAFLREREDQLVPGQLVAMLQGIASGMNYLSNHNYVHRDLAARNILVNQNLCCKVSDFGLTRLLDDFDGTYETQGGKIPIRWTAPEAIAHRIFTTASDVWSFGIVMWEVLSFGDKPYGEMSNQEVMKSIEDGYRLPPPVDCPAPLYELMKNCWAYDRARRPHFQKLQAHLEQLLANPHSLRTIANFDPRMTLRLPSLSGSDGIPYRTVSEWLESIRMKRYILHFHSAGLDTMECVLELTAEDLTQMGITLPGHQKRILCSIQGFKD", "conditions": "EPHA1; 1 μM; read-out: % control"}, "panel of 468 kinases [7]": {"molecular_target": "T7, panel of 468 kinases (Homo sapiens, UniProt P48729)", "T7 construct": "purchased KINOMEscan (ScanMAX) service", "T7 sequence (P48729 whole entry)": "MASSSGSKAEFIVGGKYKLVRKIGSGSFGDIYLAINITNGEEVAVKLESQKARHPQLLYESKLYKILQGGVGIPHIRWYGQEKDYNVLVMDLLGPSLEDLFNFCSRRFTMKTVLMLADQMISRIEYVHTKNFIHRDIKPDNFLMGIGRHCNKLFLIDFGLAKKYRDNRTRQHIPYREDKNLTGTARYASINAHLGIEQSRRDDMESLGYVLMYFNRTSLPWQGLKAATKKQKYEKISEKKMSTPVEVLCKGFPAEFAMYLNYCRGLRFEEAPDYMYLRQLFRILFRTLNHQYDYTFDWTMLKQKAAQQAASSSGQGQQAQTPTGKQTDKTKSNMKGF", "conditions": "CSNK1A1; 1 μM; read-out: % control"}, "panel of 468 kinases [8]": {"molecular_target": "T8, panel of 468 kinases (Homo sapiens, UniProt P35968)", "T8 construct": "purchased KINOMEscan (ScanMAX) service", "T8 sequence (P35968 20-1356)": "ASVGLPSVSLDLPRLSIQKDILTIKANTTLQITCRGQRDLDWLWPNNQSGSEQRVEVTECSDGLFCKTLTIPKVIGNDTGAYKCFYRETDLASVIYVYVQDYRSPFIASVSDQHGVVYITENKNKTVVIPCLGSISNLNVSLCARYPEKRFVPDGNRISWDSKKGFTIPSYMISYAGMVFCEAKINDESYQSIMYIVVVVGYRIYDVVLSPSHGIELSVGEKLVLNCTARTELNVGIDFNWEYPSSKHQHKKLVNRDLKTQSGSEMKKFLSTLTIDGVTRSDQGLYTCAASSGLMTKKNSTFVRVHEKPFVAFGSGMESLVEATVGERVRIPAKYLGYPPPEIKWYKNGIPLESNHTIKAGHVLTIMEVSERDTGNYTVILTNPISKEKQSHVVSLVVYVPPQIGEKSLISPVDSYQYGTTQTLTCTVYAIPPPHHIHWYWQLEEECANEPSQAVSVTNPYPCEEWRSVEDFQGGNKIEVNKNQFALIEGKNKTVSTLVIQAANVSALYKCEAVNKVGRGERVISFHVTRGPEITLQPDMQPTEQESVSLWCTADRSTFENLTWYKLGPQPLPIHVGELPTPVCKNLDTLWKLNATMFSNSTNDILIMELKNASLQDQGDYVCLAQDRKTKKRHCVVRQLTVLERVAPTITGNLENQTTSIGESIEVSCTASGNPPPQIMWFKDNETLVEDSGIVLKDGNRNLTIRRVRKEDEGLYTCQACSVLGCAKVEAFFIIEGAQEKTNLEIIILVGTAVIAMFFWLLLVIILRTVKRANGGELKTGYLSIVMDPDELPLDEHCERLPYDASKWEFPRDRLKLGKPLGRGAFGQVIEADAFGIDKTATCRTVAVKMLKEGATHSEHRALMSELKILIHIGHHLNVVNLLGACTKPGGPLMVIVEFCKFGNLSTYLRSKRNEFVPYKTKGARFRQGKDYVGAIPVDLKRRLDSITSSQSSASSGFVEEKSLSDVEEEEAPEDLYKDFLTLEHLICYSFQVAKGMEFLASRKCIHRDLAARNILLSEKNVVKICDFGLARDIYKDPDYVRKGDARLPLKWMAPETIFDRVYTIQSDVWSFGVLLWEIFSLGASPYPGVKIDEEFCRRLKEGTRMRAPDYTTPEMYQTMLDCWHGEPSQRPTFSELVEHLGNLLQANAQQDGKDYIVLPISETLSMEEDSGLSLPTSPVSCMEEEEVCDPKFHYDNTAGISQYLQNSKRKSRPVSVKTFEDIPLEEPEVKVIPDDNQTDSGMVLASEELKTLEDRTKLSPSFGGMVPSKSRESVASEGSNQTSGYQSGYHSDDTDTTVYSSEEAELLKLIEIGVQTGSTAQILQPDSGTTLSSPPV", "conditions": "VEGFR2; 1 μM; read-out: % control"}, "panel of 468 kinases [9]": {"molecular_target": "T9, panel of 468 kinases (Homo sapiens, UniProt Q05397)", "T9 construct": "purchased KINOMEscan (ScanMAX) service", "T9 sequence (Q05397 whole entry)": "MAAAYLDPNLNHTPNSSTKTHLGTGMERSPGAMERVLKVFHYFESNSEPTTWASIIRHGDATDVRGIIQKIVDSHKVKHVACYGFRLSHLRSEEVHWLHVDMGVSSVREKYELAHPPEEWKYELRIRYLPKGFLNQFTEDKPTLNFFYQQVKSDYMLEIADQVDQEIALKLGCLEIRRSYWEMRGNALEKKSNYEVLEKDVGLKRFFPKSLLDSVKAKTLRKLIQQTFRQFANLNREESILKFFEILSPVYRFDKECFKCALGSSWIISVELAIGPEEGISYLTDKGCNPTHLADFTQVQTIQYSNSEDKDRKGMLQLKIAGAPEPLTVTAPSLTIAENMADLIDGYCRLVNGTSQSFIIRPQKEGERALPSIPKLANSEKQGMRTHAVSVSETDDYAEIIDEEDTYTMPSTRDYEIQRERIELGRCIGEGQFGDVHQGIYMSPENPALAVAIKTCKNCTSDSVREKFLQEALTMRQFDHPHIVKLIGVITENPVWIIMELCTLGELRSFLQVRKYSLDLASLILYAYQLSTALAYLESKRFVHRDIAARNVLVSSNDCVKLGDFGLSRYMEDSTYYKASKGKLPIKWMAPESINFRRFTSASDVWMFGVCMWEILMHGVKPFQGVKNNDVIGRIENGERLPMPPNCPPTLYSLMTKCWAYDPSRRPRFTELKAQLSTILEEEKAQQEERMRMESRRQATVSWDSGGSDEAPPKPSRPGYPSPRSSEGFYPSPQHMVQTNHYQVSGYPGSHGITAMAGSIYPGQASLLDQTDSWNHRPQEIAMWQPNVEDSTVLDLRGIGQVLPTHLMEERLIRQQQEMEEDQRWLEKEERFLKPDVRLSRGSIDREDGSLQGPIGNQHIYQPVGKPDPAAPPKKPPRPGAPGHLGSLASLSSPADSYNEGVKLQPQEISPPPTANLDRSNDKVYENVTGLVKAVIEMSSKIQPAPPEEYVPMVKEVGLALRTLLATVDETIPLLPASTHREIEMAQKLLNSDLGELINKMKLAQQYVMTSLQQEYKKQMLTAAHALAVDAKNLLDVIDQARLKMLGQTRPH", "conditions": "FAK; 1 μM; read-out: % control"}},
  "data": [
    {"smiles": "CNc1nc(Nc2ccc(C(=O)N3CCC(N4CCOCC4)CC3)c3c2OCO3)nc2[nH]cc(Cl)c12", "note": "[Compound 75, (7-((5-chloro-4-(methylamino)-7H-pyrrolo[2,3-d]pyrimidin-2-yl)amino)benzo[d][1,3]dioxol-4-yl)(4-morpholinopiperidin-1-yl)methanone]", "values": [
      {"measurement": "remaining binding at 1 µM", "setting": "panel of 468 kinases [1]", "value": 100, "unit": "%"},
      {"measurement": "remaining binding at 1 µM", "setting": "panel of 468 kinases [2]", "value": 100, "unit": "%"},
      {"measurement": "remaining binding at 1 µM", "setting": "panel of 468 kinases [3]", "value": 87, "unit": "%"},
      {"measurement": "remaining binding at 1 µM", "setting": "panel of 468 kinases [4]", "value": 91, "unit": "%"},
      {"measurement": "remaining binding at 1 µM", "setting": "panel of 468 kinases [5]", "value": 100, "unit": "%"},
      {"measurement": "remaining binding at 1 µM", "setting": "panel of 468 kinases [6]", "value": 100, "unit": "%"},
      {"measurement": "remaining binding at 1 µM", "setting": "panel of 468 kinases [7]", "value": 32, "unit": "%"},
      {"measurement": "remaining binding at 1 µM", "setting": "panel of 468 kinases [8]", "value": 54, "unit": "%"},
      {"measurement": "remaining binding at 1 µM", "setting": "panel of 468 kinases [9]", "value": 39, "unit": "%"}
    ]},
    {"smiles": "CNc1nc(Nc2ccc(S(=O)(=O)N3CCC(N4CCOCC4)CC3)cc2OC)nc2[nH]cc(Cl)c12", "note": "[Compound 12, 5-chloro-N2-(2-methoxy-4-((4-morpholinopiperidin-1-yl)sulfonyl)phenyl)-N4-methyl-7H-pyrrolo[2,3-d]pyrimidine-2,4-diamine]", "values": [
      {"measurement": "remaining binding at 1 µM", "setting": "panel of 468 kinases [1]", "value": 100, "unit": "%"},
      {"measurement": "remaining binding at 1 µM", "setting": "panel of 468 kinases [2]", "value": 100, "unit": "%"},
      {"measurement": "remaining binding at 1 µM", "setting": "panel of 468 kinases [3]", "value": 91, "unit": "%"},
      {"measurement": "remaining binding at 1 µM", "setting": "panel of 468 kinases [4]", "value": 75, "unit": "%"},
      {"measurement": "remaining binding at 1 µM", "setting": "panel of 468 kinases [5]", "value": 100, "unit": "%"},
      {"measurement": "remaining binding at 1 µM", "setting": "panel of 468 kinases [6]", "value": 100, "unit": "%"},
      {"measurement": "remaining binding at 1 µM", "setting": "panel of 468 kinases [7]", "value": 48, "unit": "%"},
      {"measurement": "remaining binding at 1 µM", "setting": "panel of 468 kinases [8]", "value": 91, "unit": "%"},
      {"measurement": "remaining binding at 1 µM", "setting": "panel of 468 kinases [9]", "value": 19, "unit": "%"}
    ]},
    {"smiles": "CNc1nc(Nc2ccc(P3(=O)CCN(C4CCOCC4)CC3)cc2OC)nc2[nH]cc(Cl)c12", "note": "[Compound 77, 4-(4-((5-chloro-4-(methylamino)-7H-pyrrolo[2,3-d]pyrimidin-2-yl)amino)-3-methoxyphenyl)-1-(tetrahydro-2H-pyran-4-yl)-1,4-azaphosphinane 4-oxide]", "values": [
      {"measurement": "remaining binding at 1 µM", "setting": "panel of 468 kinases [1]", "value": 100, "unit": "%"},
      {"measurement": "remaining binding at 1 µM", "setting": "panel of 468 kinases [2]", "value": 100, "unit": "%"},
      {"measurement": "remaining binding at 1 µM", "setting": "panel of 468 kinases [3]", "value": 50, "unit": "%"},
      {"measurement": "remaining binding at 1 µM", "setting": "panel of 468 kinases [4]", "value": 100, "unit": "%"},
      {"measurement": "remaining binding at 1 µM", "setting": "panel of 468 kinases [5]", "value": 100, "unit": "%"},
      {"measurement": "remaining binding at 1 µM", "setting": "panel of 468 kinases [6]", "value": 100, "unit": "%"},
      {"measurement": "remaining binding at 1 µM", "setting": "panel of 468 kinases [7]", "value": 27, "unit": "%"},
      {"measurement": "remaining binding at 1 µM", "setting": "panel of 468 kinases [8]", "value": 91, "unit": "%"},
      {"measurement": "remaining binding at 1 µM", "setting": "panel of 468 kinases [9]", "value": 33, "unit": "%"}
    ]}
  ]
}
